# Where a name gives a salt, the structure may show the parent alone. Read-outs that look alike come from different tables or passages of the source.
# How the values were obtained:
# rPEDV-NLuc = assay: microbe, parasite or virus in culture; type: cell-based, Porcine epidemic diarrhea virus (PEDV) YN150 strain; conditions: for IC50: Vero cells, rPEDV-NLuc MOI 0.01, 1 h pre-treatment, 1.25-10 μM, NLuc activity at 20 h post-infection; for SI: selective index from CC50 and IC50
# PEDV-induced ROS = assay: Detection of PEDV-induced intracellular ROS production with DCFH-DA; type: cell-based; conditions: 10 μM, wild-type PEDV MOI 0.01, Vero cells, 16 h post-infection
# in vitro = conditions: African green monkey
# wild-type PEDV = assay: Confirmation of anti-PEDV activity with wild-type PEDV by TCID50 in Vero cells; type: cell-based, Porcine epidemic diarrhea virus (PEDV); conditions: wild-type PEDV MOI 0.01, Vero cells, TCID50 and IFA; antioxidants 2.5, 5, 10 μM; NAC 50, 100, 200 μM
# [1] = Porcine epidemic diarrhea virus, Vero
Compound,IC50 (rPEDV-NLuc; read-out: IC50),SI (rPEDV-NLuc),"CC50 (Vero cells; Vero cells, MTT assay)",CC50 (in vitro),IC50 (rPEDV-NLuc; [1]),other results
CC[C@]12C=CCN3CC[C@]4(C(=C(C(=O)OC)C1)Nc1ccccc14)[C@@H]32.Cl [Tabersonine hydrochloride],4.3 µM,19.23,82.6 µM,–,–,–
C[C@H](CCC(=O)O)[C@H]1CC[C@H]2[C@@H]3CC[C@@H]4C[C@H](O)CC[C@]4(C)[C@H]3CC[C@]12C [Lithocholic acid],–,>42.12,–,> 100 µM,2.37 µM,DCFH-DA fluorescence in PEDV-infected cells (fluorescence microscopy) (PEDV-induced ROS): only a few fluorescence signals were detected
COc1cc(/C=C/c2ccc(O)c(O)c2)cc(OC)c1 [3′-Hydroxypterostilbene],4.29 µM,>23.29,> 100 µM,–,–,–
"C[C@@H]1[C@H](O)[C@@H](C)/C=C/C=C/C=C/C=C/C=C/C=C/C=C/[C@H](O[C@@H]2O[C@H](C)[C@@H](O)[C@H](N)[C@@H]2O)C[C@@H]2O[C@](O)(C[C@@H](O)C[C@@H](O)[C@H](O)CC[C@@H](O)C[C@@H](O)CC(=O)O[C@H]1C)C[C@H](O)[C@H]2C(=O)O [Amphotericin B, reference compound]",–,>34.42,–,> 100 µM,2.91 µM,–
Tubeimoside I,4.21 µM,17.76,–,–,–,CC50 (Vero cells): 74.8 µM
C[C@H]1[C@H](C)CC[C@]2(C(=O)O)CC[C@]3(C)C(=CC[C@@H]4[C@@]5(C)CCC(=O)C(C)(C)[C@@H]5CC[C@]43C)[C@H]12 [Ursonic acid],–,19.23,–,41 µM,2.13 µM,DCFH-DA fluorescence in PEDV-infected cells (fluorescence microscopy) (PEDV-induced ROS): only a few fluorescence signals were detected
COc1ccc2c(c1)[nH]c1c(C)nccc12 [Harmine],–,>51.10,–,–,–,IC50 (rPEDV-NLuc): 1.96 µM
Tannic acid,4.37 µM,>22.89,> 100 µM,–,–,–
Cc1cc2c(C(C)C)c(O)c(O)c(C=O)c2c(O)c1-c1c(C)cc2c(C(C)C)c(O)c(O)c(C=O)c2c1O [gossypol-Acetic acid],–,>30,–,> 100 µM,2.9 µM,–
C=CC(C)(C)c1cc(/C=C/C(=O)c2ccc(O)cc2)c(OC)cc1O [Licochalcone A],4 µM,>25,> 100 µM,–,–,–
COc1ccc2c(c1)[nH]c1c(C)nccc12 [Harmine hydrochloride],–,>75.04,–,> 100 µM,1.33 µM,–
"CC(=O)N[C@@H](CS)C(=O)O [NAC, N-acetyl-L-cysteine]",–,–,–,–,–,"inhibition of PEDV replication, dose dependence (wild-type PEDV): exhibited anti-PEDV activity in a dose-dependent manner"
Cc1cc(O)c2c(c1)C(=O)c1cc(O)cc(O)c1C2=O [Emodin],–,>50,–,> 100 µM,2.1 µM,–
O=c1ccc2cc(O)c(O)cc2o1 [Esculetin],–,>16.75,–,> 100 µM,5.97 µM,DCFH-DA fluorescence in PEDV-infected cells (fluorescence microscopy) (PEDV-induced ROS): only a few fluorescence signals were detected
C[C@@]1(C(=O)O)CC[C@]2(C)CC[C@]3(C)C4=CC(=O)c5c(cc(O)c(O)c5C=O)[C@]4(C)CC[C@@]3(C)[C@@H]2C1 [Demethylzeylasteral],2.37 µM,16.27,–,–,–,CC50 (Vero cells): 38.6 µM
CCc1c2c(nc3ccccc13)-c1cc3c(c(=O)n1C2)COC(=O)[C@]3(O)CC [7-Ethylcamptothecin],< 1.25 µM,>80,> 100 µM,–,–,–
O=C(/C=C/c1ccc(O)c(O)c1)OCCc1ccccc1 [Caffeic Acid Phenethyl Ester],–,>57.63,–,> 100 µM,1.74 µM,DCFH-DA fluorescence in PEDV-infected cells (fluorescence microscopy) (PEDV-induced ROS): only a few fluorescence signals were detected
"CC1=C(C(=O)OCCN(Cc2ccccc2)c2ccccc2)C(c2cccc([N+](=O)[O-])c2)C(P2(=O)OCC(C)(C)CO2)=C(C)N1 (centres unmarked) [Efonidipine, reference compound]",–,>17.93,–,> 100 µM,5.58 µM,–
C=CC1=C(C)c2cc3[nH]c(cc4nc(cc5[nH]c(cc1n2)c(C)c5CCC(=O)O)C(CCC(=O)O)=C4C)c(C)c3C=C [Protoporphyrin IX],–,>80,–,> 100 µM,< 1.25 µM,–
C=C1C(=O)[C@]23[C@H](O)[C@H]1CC[C@H]2[C@@]12CO[C@]3(O)[C@@H](O)[C@@H]1C(C)(C)CC[C@@H]2O [Oridonin],–,–,–,35 µM,3 µM,–
COc1cc(O)cc(O)c1C(=O)/C=C/c1ccccc1 [(E)-Cardamonin],2.15 µM,>46.44,> 100 µM,–,–,–
C=C(C)[C@@H]1CC[C@]2(C(=O)O)CC[C@]3(C)[C@H](CC[C@@H]4[C@@]5(C)CCC(=O)C(C)(C)[C@@H]5CC[C@]43C)[C@@H]12 [Betulonic acid],< 1.25 µM,>49.52,61.9 µM,–,–,DCFH-DA fluorescence in PEDV-infected cells (fluorescence microscopy) (PEDV-induced ROS): only a few fluorescence signals were detected
CC(Cc1ccc(O)c(O)c1)C(C)Cc1ccc(O)c(O)c1 (centres unmarked) [Nordihydroguaiaretic acid],5 µM,>19.99,> 100 µM,–,–,DCFH-DA fluorescence in PEDV-infected cells (fluorescence microscopy) (PEDV-induced ROS): only a few fluorescence signals were detected

# Reference: paper PMC8473292 (Viruses, 2021)
